According to patent US9687522B2, “Methods of treating a subject afflicted with an autoimmune disease using predictive biomarkers of clinical response to glatiramer acetate therapy in multiple sclerosis” (TEVA PHARMACEUTICAL INDUSTRIES, LTD., priority 2010, dated 2017):

Tests used:
TNF-α = experiment: Serum TNF-α by ELISA in GA-treated MS patients; assay type: in vivo, human
Text: (§1) Approximately 60 cc of blood was obtained by venipuncture from each MS patient pre-treatment and at successive time points during treatment (3 months, 6 months, 9-12 months and 24 months). PBMC were purified using Ficoll-Hypaque gradients as described in the supplier's protocol (ICN Biomedicals Inc. Ohio, USA). Samples from collaborating centers were sent via overnight FedEx™ delivery at room temperature and processed immediately upon arrival.
(§2) Interleukin-18 and caspase-1 levels were detected by human ELISA kits (Sandwich ELISA, Bender Nedaystems, USA). The sensitivity of the ELISA was 9.2 and 3.3 pg/ml for IL-18 and caspase-1 respectively. TGF-β, TNF-α, IL-4, IFN-γ, IL-17 and IL-10 levels were detected by human ELISA kits from ebioscience (San Diego Calif., 92121 USA). The sensitivity of the ebioscience kits were 60 pg/ml, 4 pg/ml, 2 pg/ml, 4 pg/ml, 4 pg/ml and 2 pg/ml respectively. BDNF was detected by the Human BDNF ELISA kit from Chemicon International (catalog #CYT306). The sensitivity of the BDNF ELISA was 7.8 pg/ml. […] Duplicates should be within 20% of the mean.

IL-10 = IL-10 by ELISA in ex-vivo PBMC supernatant of GA-treated MS patients; assay type: cell-based, human
Procedure: as §1
(§3) 2×10^5 PBMC/well were seeded in 96 well U-bottom micro titer plate in the absence of antigen (unstimulated condition) (US) or the presence of GA at 40 and 100 μg/ml (Teva Pharmaceutical Industries, Ltd., Israel), tetanus toxoid (TT 5 μg) obtained from UMASS (University of Mass, Worcester, Mass.). The latter was used as a control antigen. Supernatants were collected from cultured cells at days 1, 3 and 5 for various assays. After 5 days, 1 μCi ^3H-thymidine was added. Cells were harvested 18 hours later using TOMTEC cell harvester (TOMTEC, Hamden Conn.). Incorporated radioactivity was measured using a liquid Scintillation counter (Wallac MicroBeta Trilux, PerkinElmer, Boston, Mass.).
as §2

RRMS subjects = conditions: cited from earlier work
IL-4 = IL-4 ELISPOT in ex-vivo PBMC of GA-treated MS patients; assay type: cell-based, human; set-up: unit not given here; conditions: CD3/CD28 stimulated PBMC
Text: as §1
Human IFN-γ (Th1 indicator) and IL-4 (Th2 indicator) were measured by the ELISPOT assay according to the manufacturer's protocol (BD Biosciences, San Diego, Calif., USA). Briefly, ELISPOT plates (PVDF plate, Millipore Corporation, MA, USA) were coated with 100 μl/well of 5 μg/ml capture antibody at 4° C. over night. The plates were then washed with PBS, and incubated with 200 μl/well of blocking solution (culture medium) for 2 hours. PBMC (2×10^5 cells/well for IFN-γ and 4×10^5 cells/well for IL-4 detection) and antigen (GA 40 and 100 μg/ml, TT 5 μg/ml, CD3Ab (2.5 μg/ml)/CD28 Ab (1 μg/ml)) was added and cultured overnight at 37° C. in a 5% CO2 incubator. Samples were tested in triplicate wells in response to each antigen. After overnight culture, the plates were washed twice with deionized water and three times with PBS, then incubated with 100 μl of 2.0 μg/ml biotinylated antibody for 2 hours at room temperature. The plates were then washed three times with wash buffer (0.05% Tween-20 PBS), and incubated with 100 μl of 1:100 dilution of Avidin-HRP for 1 hour at room temperature and washed three times with wash buffer. Finally 100 μl of AEC (3-amino-9-ethyl-carbazole) substrate was added and the reaction was stopped by washing plates with distilled water. Spots were counted and analyzed by CTL Analyzers LLC ELISPOT Plate Reader (Cleveland, Ohio, USA).

IFN-γ = experiment: Serum IFN-γ by ELISA in GA-treated MS patients; assay type: in vivo, human
Text: as §1, §2

IL-18 = IL-18 by ELISA in ex-vivo PBMC supernatant of GA-treated MS patients; assay type: cell-based, human; conditions: both groups
Procedure: as §1
as §3, with “Cells were harvested 18 hours later using TOMTEC cell harvester (TOMTEC, Hamden Conn.).” left out
Interleukin-18 and caspase-1 levels were detected by human ELISA kits (Sandwich ELISA, Bender Nedaystems, USA). […] TGF-β, TNF-α, IL-4, IFN-γ, IL-17 and IL-10 levels were detected by human ELISA kits from ebioscience (San Diego Calif., 92121 USA). […] BDNF was detected by the Human BDNF ELISA kit from Chemicon International (catalog #CYT306). […]

[1] = GA 20 mg, largest controlled study

Glatiramer acetate [GA]
Serum TNF-α level (TNF-α; HR, 3 mo): 56 ± 5.0 pg/mL | Serum TNF-α level (TNF-α; HR, 6 mo): 55 ± 7.0 pg/mL | Serum TNF-α level (TNF-α; HR, 9-12 mo): 59 ± 5.18 pg/mL | Serum TNF-α level (TNF-α; HR, 24 mo): 52.4 ± 9.64 pg/mL | Serum TNF-α level (TNF-α; HR, Pre-Rx): 51 ± 3.0 pg/mL | Serum TNF-α level (TNF-α; R, 3 mo): 47 ± 3.3 pg/mL | Serum TNF-α level (TNF-α; R, 6 mo): 44 ± 4.6 pg/mL | Serum TNF-α level (TNF-α; R, 9-12 mo): 54 ± 4.24 pg/mL | Serum TNF-α level (TNF-α; R, 24 mo): 50.13 ± 1.5 pg/mL | Serum TNF-α level (TNF-α; R, Pre-Rx): 57 ± 3.6 pg/mL | Δ TNF-alpha 6 months, Median (Non-Responders) (TNF-α; serum, change from baseline): 1 | Δ TNF-alpha 6 months, Median (Responders) (TNF-α; serum, change from baseline): −14 | Supernatant IL-10 level (IL-10; HR/NR, 3 mo): 160 ± 65 pg/mL | Supernatant IL-10 level (IL-10; HR/NR, 6 mo): 153 ± 69 pg/mL | Supernatant IL-10 level (IL-10; HR/NR, 9-12 mo): 181 ± 22 pg/mL | Supernatant IL-10 level (IL-10; HR/NR, 24 mo): 200 ± 59 pg/mL | Supernatant IL-10 level (IL-10; HR/NR, Pre-Rx): 143 ± 61 pg/mL | Supernatant IL-10 level (IL-10; R, 3 mo): 200 ± 65 pg/mL | Supernatant IL-10 level (IL-10; R, 6 mo): 310 ± 64 pg/mL | Supernatant IL-10 level (IL-10; R, 9-12 mo): 249 ± 70 pg/mL | Supernatant IL-10 level (IL-10; R, 24 mo): 255 ± 45 pg/mL | Supernatant IL-10 level (IL-10; R, Pre-Rx): 170 ± 60 pg/mL | median cumulative number of Gd-enhancing lesions (RRMS subjects; 20 mg group, over 9 months of treatment): 11 lesions | relapse rate (RRMS subjects; [1]): 1.34 | relapse rate reduction versus placebo (RRMS subjects; [1]): 32% | tolerability (RRMS subjects; daily standard dose of 20 mg): generally well tolerated | IL-4 expression (ELISPOT) (IL-4; HR/NR, 3 mo): 14 ± 4 | IL-4 expression (ELISPOT) (IL-4; HR/NR, 6 mo): 20 ± 6 | IL-4 expression (ELISPOT) (IL-4; HR/NR, 9-12 mo): 23 ± 5 | IL-4 expression (ELISPOT) (IL-4; HR/NR, 24 mo): 21 ± 3.5 | IL-4 expression (ELISPOT) (IL-4; HR/NR, Baseline): 39 ± 9 | IL-4 expression (ELISPOT) (IL-4; R, 3 mo): 44 ± 7.4 | IL-4 expression (ELISPOT) (IL-4; R, 6 mo): 45 ± 7.3 | IL-4 expression (ELISPOT) (IL-4; R, 9-12 mo): 39 ± 5.8 | IL-4 expression (ELISPOT) (IL-4; R, 24 mo): 36 ± 7.2 | IL-4 expression (ELISPOT) (IL-4; R, Baseline): 35 ± 5.9 | Serum IFN-γ level (IFN-γ; HR/NR, 3 mo): 27 ± 1.45 pg/mL | Serum IFN-γ level (IFN-γ; HR/NR, 6 mo): 26 ± 1.53 pg/mL | Serum IFN-γ level (IFN-γ; HR/NR, 9-12 mo): 52 ± 5.8 pg/mL | Serum IFN-γ level (IFN-γ; HR/NR, 24 mo): 45 ± 5.3 pg/mL | Serum IFN-γ level (IFN-γ; HR/NR, Pre-Rx): 25 ± 1.7 pg/mL | Serum IFN-γ level (IFN-γ; R, 3 mo): 25 ± 2.1 pg/mL | Serum IFN-γ level (IFN-γ; R, 6 mo): 24 ± 1.9 pg/mL | Serum IFN-γ level (IFN-γ; R, 9-12 mo): 48 ± 6.3 pg/mL | Serum IFN-γ level (IFN-γ; R, 24 mo): 45 ± 3.8 pg/mL | Serum IFN-γ level (IFN-γ; R, Pre-Rx): 29 ± 2.3 pg/mL | Supernatant IL-18 levels, change during GA treatment (IL-18): did not show any significant changes from baseline
